Experimental data as given in ChEMBL document CHEMBL4811285, “Effects of N-terminus modified Hx-amides on DNA binding affinity, sequence specificity, cellular uptake, and gene expression” (Bioorg Med Chem Lett, 2021).
Active and inactive are the calls of the source. The calls are words filed in the database; no cut-off is given here.

Columns and labels:
TOP2A promoter [1] = assay: Inhibition of 5'-TACGAT-3 (unknown origin) binding to 32P-radiolabeled DNA ICB2 -binding site (unknown origin) assessed as disruption NF-Y/ICB2 interaction using NIH3T3 cell nuclear protein extract at >= 3 uM incubated for 1 hr by electrophoretic mobility shift assay; details: dose microM >=3, time 1.0 hrs
[2] = Induction of TOP2A mRNA expression in human A549 cells assessed as fold increase in mRNA expression at 2 uM incubated for 18 hrs by real time PCR analysis; type: cell-based
TOP2A promoter [3] = assay: Binding affinity to 5'-AACGTT-3' DNA (unknown origin) at 0.5 uM by DNase1 footprinting based Autoradiogram analysis; type: nucleic-acid assay
TOP2A promoter [4] = assay: Binding affinity to 5'-AACGTT-3' DNA (unknown origin) at 1 uM by DNase1 footprinting based Autoradiogram analysis; type: nucleic-acid assay
TOP2A promoter [5] = assay: Inhibition of 5'-TACGAT-3 (unknown origin) binding to 32P-radiolabeled DNA ICB2 -binding site (unknown origin) assessed as disruption NF-Y/ICB2 interaction using NIH3T3 cell nuclear protein extract incubated for 1 hr by electrophoretic mobility shift assay
[6] = Drug uptake in mouse NIH3T3 cells assessed as increase in fluorescence intensity at 1 uM after 24 hr by confocal microscopic analysis relative to control; type: ADME, cell-based; details: nih3t3, 24 h
[7] = Drug uptake in mouse NIH3T3 cells assessed as increase in fluorescence intensity at 10 uM after 24 hr by confocal microscopic analysis relative to control; type: ADME, cell-based; details: nih3t3, 24 h
[8] = Drug uptake in mouse NIH3T3 cells assessed as increase in fluorescence intensity at 20 uM after 24 hr by confocal microscopic analysis relative to control; type: ADME, cell-based; details: nih3t3, 24 h
[9] = Drug uptake in mouse NIH3T3 cells assessed as fluorescence in mitochondria upto 20 uM incubated for 24 hrs under dark condition by mito-tracker red dye based confocal microscopic analysis; type: ADME; details: nih3t3, 24 h
TOP2A promoter [10] = assay: Binding affinity to 5'-AACGTT-3' DNA promoter TOP2A (unknown origin) at 3 uM by DNase1 footprinting based Autoradiogram analysis; type: nucleic-acid assay
TOP2A promoter [11] = assay: Binding affinity to 5'-AACGTT-3' DNA (unknown origin) at 3 uM by DNase1 footprinting based Autoradiogram analysis; type: nucleic-acid assay
TOP2A promoter [12] = assay: Inhibition of 5'-TACGAT-3 (unknown origin) binding to 32P-radiolabeled DNA ICB2 -binding site (unknown origin) assessed as disruption NF-Y/ICB2 interaction using NIH3T3 cell nuclear protein extract at >= 1 uM incubated for 1 hr by electrophoretic mobility shift assay; details: dose microM >=1, time 1.0 hrs
[13] = Drug uptake in mouse NIH3T3 cells assessed as fluorescence in nucleus upto 20 uM incubated for 24 hrs under dark condition by mito-tracker dye based confocal microscopic analysis; type: ADME, cell-based; details: nih3t3, 24 h
DNA [14] = assay: Binding affinity to DNA at 5'-AAGCTT-3' (unknown origin) upto 25 uM by DNase1 footprinting based autoradiogram analysis; type: nucleic-acid assay; details: dose microM <=25
DNA [15] = assay: Binding affinity to DNA at 5'-ACGGGT-3' site (unknown origin) assessed as protection of the site from enzyme digestion at 5 uM by DNase1 footprinting based autoradiogram analysis; type: nucleic-acid assay
DNA [16] = assay: Binding affinity to DNA at 5'-ACTAGT-3' (unknown origin) upto 25 uM by DNase1 footprinting based autoradiogram analysis; type: nucleic-acid assay; details: dose microM <=25
DNA [17] = assay: Binding affinity to DNA at 5'-ACGCGT-3' (unknown origin) upto 25 uM by DNase1 footprinting based autoradiogram analysis; type: nucleic-acid assay; details: dose microM <=25
TOP2A promoter [18] = assay: Binding affinity to 5'-AACGTT-3' DNA (unknown origin) at 10 uM by DNase1 footprinting based Autoradiogram analysis; type: nucleic-acid assay
DNA [19] = assay: Binding affinity to DNA at 5'-ACCGGT-3' (unknown origin) upto 25 uM by DNase1 footprinting based autoradiogram analysis; type: nucleic-acid assay; details: dose microM <=25
DNA [20] = assay: Binding affinity to DNA at 5'-AAGCTT-3' site (unknown origin) assessed as protection of the site from enzyme digestion at 5 uM by DNase1 footprinting based autoradiogram analysis; type: nucleic-acid assay
DNA [21] = assay: Binding affinity to DNA at 5'-ACGGGT-3' (unknown origin) upto 25 uM by DNase1 footprinting based autoradiogram analysis; type: nucleic-acid assay; details: dose microM <=25
DNA [22] = assay: Binding affinity to DNA at 5'-AAATTT-3' (unknown origin) upto 25 uM by DNase1 footprinting based autoradiogram analysis; type: nucleic-acid assay; details: dose microM <=25

CN(C)CCCNC(=O)c1cc(NC(=O)c2nc(NC(=O)c3ccc4nc(-c5ccco5)[nH]c4c3)cn2C)cn1C
inhibition (TOP2A promoter [1]): Active

CN(C)CCCNC(=O)c1cc(NC(=O)c2nc(NC(=O)c3ccc4nc(-c5ccncc5)[nH]c4c3)cn2C)cn1C
Activity ([2]; human, a549, 18 h, 2 µM): Not Active | Activity (TOP2A promoter [3]): Active | Activity (TOP2A promoter [4]): Active | inhibition (TOP2A promoter [5]): Dose-Dependent Effect | Flu intensity [6]: 1.29 | Flu intensity [7]: 1.49 | Flu intensity [8]: 1.6 | Drug uptake [9]: Active

CN(C)CCCNC(=O)c1cc(NC(=O)c2nc(NC(=O)c3ccc4nc(-c5ccc(F)cc5)[nH]c4c3)cn2C)cn1C
fold induction at 2 µM ([2]; Homo sapiens, A549, read-out: FC): 1.7 | Activity (TOP2A promoter [10]): Active | Flu intensity [6]: 1.12 | Activity (TOP2A promoter [11]): Active | Flu intensity [7]: 6.08 | Flu intensity [8]: 15.01 | inhibition (TOP2A promoter [12]): Active | Drug uptake [13]: Active

COc1ccc(-c2nc3ccc(C(=O)Nc4cn(C)c(C(=O)Nc5cc(C(=O)NCCCN(C)C)n(C)c5)n4)cc3[nH]2)cn1
inhibition (TOP2A promoter [1]): Active

COc1ccc(-c2nc3ccc(C(=O)Nc4cn(C)c(C(=O)Nc5cc(C(=O)NCCCN(C)C)n(C)c5)n4)cc3[nH]2)cc1
Activity (DNA [14]): inactive | Activity (DNA [15]): Active | Activity (DNA [16]): inactive | Activity (DNA [17]): inactive | Activity (TOP2A promoter [18]): inactive | Activity (DNA [19]): inactive | Activity (DNA [20]): Active | Flu intensity [6]: 2.75 | Activity (TOP2A promoter [11]): Active | Activity (DNA [21]): inactive | Flu intensity [7]: 13.96 | Flu intensity [8]: 32.03 | Activity (DNA [22]): inactive

CN(C)CCCNC(=O)c1cc(NC(=O)c2nc(NC(=O)c3ccc4nc(-c5cc6ccccc6o5)[nH]c4c3)cn2C)cn1C
inhibition (TOP2A promoter [1]): Active
